Data reported in EP0603240B1, “SAFENING HERBICIDAL PYRAZOLYLSULFONYLUREAS” (priority 1991, dated 1993).

Key:
Type in all cases: in vivo
corn [1] = experiment: Example 8, Procedure II: Herbicide No. 1 + butachlor (No. 9) with antidotes
Protocol: (§1) Containers were filled and compacted with a fumigated silt loam top soil to a depth of about 1.3 cm from the top of the container. A first container was designated as an untreated control, a second container was designated as a herbicide control, and a third container was designated as a herbicide + antidote test container. Each of the containers was seeded with a crop species. A measured amount of herbicide dispersed or dissolved in acetone was applied to a measured quantity of soil. To this same quantity of soil treated with herbicide, there was added a measured amount of antidote dispersed or dissolved in acetone. The quantity of soil treated with the herbicide and antidote was thoroughly mixed to incorporate the herbicide and antidote in the soil uniformly. The seed bed in the third container of soil was covered with the soil treated with the herbicide and antidote and the container was leveled. For each test series, the seed beds of the first and second containers were likewise covered by soil layers. the cover layer of the first container was not treated with herbicide or antidote.
(§2) The containers were then placed on a bench in a greenhouse and sub-irrigated as required for the duration of the test. […] Plant response is measured in terms of percent injury. Antidote efficacy is indicated as the difference in plant injury by the herbicide(s) without the antidote and with the antidote.
(§3) This procedure is the same as Procedure I, but modified in the manner that after incorporation of the chemicals (herbicide and antidote) the containers with the covered seedbed were treated with an initial overhead irrigation equivalent to 0.6 cm rainfall, then subsequently sub-irrigated as required on greenhouse benches.
In this test, the efficacy of the same five antidotes used in Examples 6 and 7 was investigated in compositions comprising Herbicide No. 1 and as a co-herbicide, butachlor (Herbicide No. 9), active ingredient in MACHETE® herbicide, a leading commercial rice herbicide. The test procedure used in this example was the same as that in Examples 6 and 7.

[2] = test system: velvetleaf (Abutilon theophrasti); experiment: Example 19, Procedure II: Herbicide No. 1 + ERADICANE EXTRA with added antidotes
Protocol: as §1, §2, §3
(§4) In the series of greenhouse tests described below, for routine screening purposes the herbicide/antidote compositions were tested in crop/weed combinations involving corn as the crop and either or both of the weeds barnyardgrass (Echinochloa crusgalli), a monocotyledonous weed, and velvetleaf (Abutilon theophrasti), a dicotyledonous weed. In the tables below, these weeds are indicated by the symbols "BYG" and "VL", respectively.
(§5) In the test reported in this example, the herbicidal composition was similar to that used in Example 16 in that Herbicide No. 1 was combined with EPTC (Herbicide No. 4) as a co-herbicide and the antidotes included Nos. 1, 2, 7, 13 and 15. However, in this test the EPTC was introduced as a formulation of ERADICANE (EPTC + the antidote R-25788, i.e., Antidote No. 1) at an application rate of 8.96 kg/ha. Thus, in this test two antidotes were present, viz. R-25788 and one of the auxilliary antidotes, No. 2, 13 and 15.
(§6) The test reported in this example was performed in the same manner and with the same antidotes used in Example 18, the only difference being the substitution of the commercial herbicidal product ERADICANE® EXTRA for ERADICANE®. ERADICANE EXTRA is a formulation containing both an antidote, i.e., R-29148 (Antidote No. 5 herein), and an extender, dietholate.

[3] = test system: barnyardgrass (Echinochloa crusgalli); experiment: as above
Protocol: as §1, §2, §3, §4, §5, §6

[4] = test system: velvetleaf (Abutilon theophrasti); experiment: Example 11, Procedure II: Herbicide No. 1 + metazachlor (No. 14) with antidotes
Protocol: as §1, §2, §3, §4
(§7) In this example, yet another α-chloroacetanilide co-herbicide, metazachlor (Herbicide No. 14) was combined with Herbicide No. 1 for investigation of the effect of various safeners on that composition. Metazachlor is the active ingredient in the commercial herbicide BUTISAN® S, used here as a 500 g/L formulation.

[5] = test system: barnyardgrass (Echinochloa crusgalli); experiment: as above
Protocol: as §1, §2, §3, §4, §7

corn [6] = experiment: Example 21, Procedure II: Herbicide No. 1 + SUTAN PLUS (butylate + antidote) with antidotes
Protocol: as §1, §2, §3
(§8) In this example, tests were conducted as in the preceding Examples 18-20, except here the co-herbicidal component was SUTAN® PLUS, a commercial product comprising as the active herbicidal ingredient the compound butylate (Herbicide No. 10) and an antidote […] (Antidote No. 1). Again, the antidotal compounds herein were Nos. 1, 2, 7, 13 and 15. Procedure II was used.

[7] = test system: velvetleaf (Abutilon theophrasti); experiment: Example 22: retest of Example 21 at reduced greenhouse temperatures; details: Table 22
Protocol: as §1, §2, §3, §4, §8
(§9) The experiments in this example were designed as a retest of those described in Example 21 in view of the uncharacteristically poor corn safety and weed control, believed to have resulted from unseasonably high temperatures in the greenhouse. Accordingly, temperatures were reduced for these tests.

[8] = test system: barnyardgrass (Echinochloa crusgalli); experiment: as above; details: Table 22
Protocol: as §1, §2, §3, §4, §8, §9

[9] = test system: velvetleaf (Abutilon theophrasti); experiment: Example 6, Procedure II: Herbicide No. 1 + alachlor (No. 7) with antidotes
Protocol: as §1, §2, §3, §4
(§10) This example was designed to investigate the antidotal efficacy of a plurality of antidotal compounds against a composition comprising Herbicide No. 1 in combination with Herbicide No. 7 (alachlor). The antidotal compounds used herein were Nos. 1, 2, 7, 13 and 15.
(§11) In this example, Procedure II described above was followed. The data from the tests in this example is shown in Table 6 and represents averages of duplicate replications.

[10] = test system: barnyardgrass (Echinochloa crusgalli); experiment: as above
Protocol: as §1, §2, §3, §4, §10, §11

[11] = Herbicide No.1 0.14 + No.9 2.24 kg/ha + antidote 2.24 kg/ha
[12] = Herbicide No.1 0.14 + No.9 2.24 kg/ha + antidote 8.96 kg/ha
[13] = Herbicide No.1 0.56 + No.9 2.24 kg/ha + antidote 2.24 kg/ha
[14] = Herbicide No.1 0.56 + No.9 2.24 kg/ha + antidote 8.96 kg/ha
[15] = Herbicide No.1 0.56 kg/ha + ERADICANE EXTRA 8.96 kg/ha, antidote 2.24 kg/ha
[16] = Herbicide No.1 0.56 kg/ha + ERADICANE EXTRA 8.96 kg/ha, antidote 8.96 kg/ha
[17] = Herbicide No.1 1.12 kg/ha + ERADICANE EXTRA 8.96 kg/ha, antidote 2.24 kg/ha
[18] = Herbicide No.1 1.12 kg/ha + ERADICANE EXTRA 8.96 kg/ha, antidote 8.96 kg/ha
[19] = Herbicide No.1 0.56 kg/ha + Herbicide No.14 3.36 kg/ha, antidote rate 2.24 kg/ha
[20] = Herbicide No.1 0.56 kg/ha + Herbicide No.14 3.36 kg/ha, antidote rate 8.96 kg/ha
[21] = Herbicide No.1 1.12 kg/ha + Herbicide No.14 3.36 kg/ha, antidote rate 2.24 kg/ha
[22] = Herbicide No.1 1.12 kg/ha + Herbicide No.14 3.36 kg/ha, antidote rate 8.96 kg/ha
[23] = Herbicide No.1 0.56 kg/ha + SUTAN + 8.96 kg/ha, antidote 2.24 kg/ha
[24] = Herbicide No.1 0.56 kg/ha + SUTAN + 8.96 kg/ha, antidote 8.96 kg/ha
[25] = Herbicide No.1 1.12 kg/ha + SUTAN + 8.96 kg/ha, antidote 2.24 kg/ha
[26] = Herbicide No.1 1.12 kg/ha + SUTAN + 8.96 kg/ha, antidote 8.96 kg/ha
[27] = Herbicide No.1 0.56 Kg/ha + SUTAN + 8.96 Kg/ha + antidote 2.24 Kg/ha
[28] = Herbicide No.1 0.56 Kg/ha + SUTAN + 8.96 Kg/ha + antidote 8.96 Kg/ha
[29] = Herbicide No.1 1.12 Kg/ha + SUTAN + 8.96 Kg/ha + antidote 2.24 Kg/ha
[30] = Herbicide No.1 1.12 Kg/ha + SUTAN + 8.96 Kg/ha + antidote 8.96 Kg/ha
[31] = Herbicide No.1 0.14 + No.7 4.48 kg/ha + antidote 2.24 kg/ha
[32] = Herbicide No.1 0.14 + No.7 4.48 kg/ha + antidote 8.96 kg/ha
[33] = Herbicide No.1 0.56 + No.7 4.48 kg/ha + antidote 2.24 kg/ha
[34] = Herbicide No.1 0.56 + No.7 4.48 kg/ha + antidote 8.96 kg/ha

SMILES | % Injury Corn (corn [1]; [11]) [%] | % Injury Corn (corn [1]; [12]) [%] | % Injury Corn (corn [1]; [13]) [%] | % Injury Corn (corn [1]; [14]) [%] | % Injury VL [2, 15] [%] | % Injury VL [2, 16] [%] | % Injury VL [2, 17] [%] | % Injury VL [2, 18] [%] | % Injury BYG [3, 15] [%] | % Injury BYG [3, 16] [%] | % Injury BYG [3, 17] [%] | % Injury BYG [3, 18] [%] | % Injury VL [4, 19] [%] | % Injury VL [4, 20] [%] | % Injury VL [4, 21] [%] | % Injury VL [4, 22] [%] | % Injury BYG [5, 19] [%] | % Injury BYG [5, 20] [%] | % Injury BYG [5, 21] [%] | % Injury BYG [5, 22] [%] | other results
O=C1OC(=O)c2cccc3cccc1c23 [compound 2] | 15 | 15 | 25 | 20 | 75 | 75 | 85 | 75 | 90 | 90 | 85 | 85 | 85 | 90 | 97 | 85 | 99 | 99 | 100 | 100 | % Injury Corn (corn [6]; [23]): 10%; % Injury Corn (corn [6]; [24]): 5%; % Injury Corn (corn [6]; [25]): 0%; % Injury Corn (corn [6]; [26]): 15%; % Injury VL [7, 27]: 80%; % Injury VL [7, 28]: 90%; % Injury VL [7, 29]: 93%; % Injury VL [7, 30]: 90%; % Injury BYG [8, 27]: 80%; % Injury BYG [8, 28]: 90%; % Injury BYG [8, 29]: 85%; % Injury BYG [8, 30]: 90%; % Injury VL [9, 31]: 70%; % Injury VL [9, 32]: 75%; % Injury VL [9, 33]: 90%; % Injury VL [9, 34]: 90%; % Injury BYG [10, 31]: 100%; % Injury BYG [10, 32]: 100%; % Injury BYG [10, 33]: 100%; % Injury BYG [10, 34]: 100%
O=C(C(Cl)Cl)N1CCOC12CCCCC2 [compound 7] | 5 | 10 | 25 | 20 | 75 | 80 | 75 | 85 | 85 | 85 | 90 | 85 | 80 | 85 | 90 | 90 | 99 | 100 | 99 | 99 | % Injury Corn (corn [6]; [23]): 5%; % Injury Corn (corn [6]; [24]): 20%; % Injury Corn (corn [6]; [25]): 15%; % Injury Corn (corn [6]; [26]): 15%; % Injury VL [7, 27]: 80%; % Injury VL [7, 28]: 75%; % Injury VL [7, 29]: 97%; % Injury VL [7, 30]: 70%; % Injury BYG [8, 27]: 90%; % Injury BYG [8, 28]: 90%; % Injury BYG [8, 29]: 95%; % Injury BYG [8, 30]: 80%; % Injury VL [9, 31]: 75%; % Injury VL [9, 32]: 75%; % Injury VL [9, 33]: 90%; % Injury VL [9, 34]: 90%; % Injury BYG [10, 31]: 100%; % Injury BYG [10, 32]: 100%; % Injury BYG [10, 33]: 100%; % Injury BYG [10, 34]: 100%
CC1(C(Cl)Cl)OCCO1 [compound 13] | 25 | 10 | 45 | 30 | 65 | 70 | 80 | 85 | 90 | 90 | 90 | 95 | 85 | 85 | 90 | 95 | 100 | 100 | 100 | 100 | % Injury Corn (corn [6]; [23]): 0%; % Injury Corn (corn [6]; [24]): 10%; % Injury Corn (corn [6]; [25]): 5%; % Injury Corn (corn [6]; [26]): 10%; % Injury VL [7, 27]: 85%; % Injury VL [7, 28]: 95%; % Injury VL [7, 29]: 95%; % Injury VL [7, 30]: 90%; % Injury BYG [8, 27]: 90%; % Injury BYG [8, 28]: 90%; % Injury BYG [8, 29]: 95%; % Injury BYG [8, 30]: 93%; % Injury VL [9, 31]: 75%; % Injury VL [9, 32]: 65%; % Injury VL [9, 33]: 90%; % Injury VL [9, 34]: 90%; % Injury BYG [10, 31]: 100%; % Injury BYG [10, 32]: 100%; % Injury BYG [10, 33]: 100%; % Injury BYG [10, 34]: 100%
